Measured values from patent US20210353579A1, “HIGH PENETRATION COMPOSITIONS AND USES THEREOF” (Techfields Pharma Co., Ltd., priority 2006, published 2021).
≈ marks a conversion by molar mass, not a printed value. Like-named read-outs stand apart in the source and are kept apart here.

Tests used:
[1] = Plasma levels after transdermal administration to hairless mice; assay type: in vivo
Description: Tested compounds (20% solution or suspension in 1 mL isopropanol) are administered transdermally to the skin of intact hairless mice. The plasma levels of the parent compounds are determined by HPLC.

[2] = as above; conditions: mouse, in vivo, po
human skin tissue [3] = conditions: pH 7.4
C57/BL6 mice, MPTP = assay: MPTP Parkinson's disease mice: GABA and Glu in substantia nigra and striatum; conditions: mouse, in vivo
Description: Group A mice were i.p. injected 0.4% sodium carboxymethylcellulos (15 ml/kg per day) for 7 days. Group B and C mice were i.p. injected N-methyl-4-phenyl-1,2,3,6-tetrahydropyridine (MPTP, 30 mg/kg per day) for 7 days. The mice were divided into 2 groups. […] All mice were killed after the last treatment and the brain tissues were quickly frozen at −80° C. […] The contents of GABA and Glu in the striatum and SN were shown by high performance amino acid auto-analyser.

[4] = system: Human colon cancer cells (LS174J); assay: Human colon cancer xenograft in nude mice, topical; conditions: day 30, about 30 μl of 5% solution (1.5 mg) topically applied
Description: Human colon cancer cells (LS174J, 2-3 mm^3 of tumor tissue was used in each mouse) are subcutaneously xenografted into the front leg of nude mice (BALB).

Chinese white rabbits = assay: Malassezia-induced lesions similar to psoriasis; assay type: in vivo, rabbit; conditions: 5% aqueous solution twice per day, 10 days after application
Description: Heavy suspensions of Malassezia [Rosenberg, E. W., et al., Mycopathologia, 72, 147-154 (1980)] were applied to the shaved skin on the backs of the Chinese white rabbits (n=4×6) twice (at 7 am and 7 pm) per day for 2 weeks, lesions similar to psoriasis resulted.

mice [5] = assay: Analgesic activity, acetic acid writhing; assay type: in vivo; conditions: 30 min before acetic acid
Description: The prodrug compounds are administered either transdermally or orally. The parent compounds are administered orally. The number of writhing that occurred when mice are administered the acetic acid solution are counted, and the rate of inhibition based on the control group which was not pretreated with any test compounds is calculated. […] The A group is the control group.

human skin tissue [6] = assay: In vitro penetration rate through human skin, modified Franz cells; conditions: 20% solution in 0.2 M phosphate buffer pH 7.4, human skin, Franz cell
rats = assay: Antipyretic activity, E. coli suspension as pyrogen; assay type: in vivo; conditions: in °C (unit assumed)
Description: Rats are administered with sterilized E. coli suspension as a pyrogen. Each group of rats are administered with a prodrug compounds or parent compounds at a dosage specified below. The prodrug compounds are administered either orally or transdermally. The parent compounds are administered orally.

[7] = Distribution of prodrug and metabolites in tissues after application to the back of killed rats; assay type: in vivo; conditions: Wistar, rat, 50 mg/kg, 3 h after 50 mg/kg prodrug citric acid salt on the back of killed rat, 37° C.
Description: The mixture was centrifuged for 5 minutes at 16,000 rpm. The supernatant (2 ml) was collected and evaporated to dryness.

[8] = Solubility in water / aqueous solubility of HPPs and parent drugs; conditions: water
mice [9] = assay: Analgesic activity, D'Amour-Smith method (tail heat, pain threshold); assay type: in vivo; conditions: 200 mg/kg transdermally vs 200 mg/kg diflunisal orally
Description: After the tested compounds are administered (the dosages for each test compounds are specified in FIG. 3, prodrug compounds are administered orally and transdermally respectively in different groups, while parent compounds are administered orally) to a group of mice (six mice every group), the tails of mice are exposed to heat and the prolongation time of pain threshold is determined. […] The prodrug compounds show similar analgesic activities when the same dosages are administered orally or transdermally. (FIG. 3)

[10] = transdermal, 20% in 1 mL isopropanol, hairless mice
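Throughout, for LD50 of HPP: acute toxicity in rats expressed as LD50, determined for both prodrugs and their parent compounds.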
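Throughout, for LD50 of parent drug: acute toxicity in rats expressed as LD50, determined for both prodrugs and their parent compounds.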

For Nc1c(CC(=O)O)cccc1C(=O)c1ccc(Br)cc1 [Bromofenac, bromofenac], the “Peak plasma concentration after parent compound” value ([1]; mouse, in vivo) was 0.1 mg/L, the “t, time to peak plasma level after parent compound” value (shortened to “t, time … after parent compound”) [2] was 1 to 2 h and the “In vitro penetration rate (apparent flux), parent compounds” value (human skin tissue [3]) was 10 μg/cm^2/h.
With NC(=O)C[S+]([O-])C(c1ccccc1)c1ccccc1 (stereo not shown) [modafinil, reference compound] the “increase of nigrostriatal Glu release induced by MPTP” value (C57/BL6 mice, MPTP) was “did not change”.
In the case of CC(=O)O.CCN(CC)CCOC(=O)Cc1ccc(C(=O)c2ccc(C)cc2)n1C [diethylaminoethyl 1-methyl-5-(4-methylbenzoyl)-1H-pyrrole-2-acetate.AcOH], the “Peak plasma concentration of parent compound after prodrug compound” value [1, 10] is reported as 20 mg/L, the “t, time to peak plasma level of parent compound after prodrug compound” value [1, 10] is reported as 50 min and the “LD50 of HPP” value (rat; rat, in vivo) is reported as 600 mg/kg. For the same compound, the Mouse weight [4] was 21 ± 2 g, the Tumor size [4] was 610 ± 200 mm^3 and the “lesions similar to psoriasis” value (Chinese white rabbits) was “the lesions were resolved”. For the same compound, the “% (rate of writhing inhibition)” value (mice [5]; 100 mg/kg transdermally) was 51%, the “No. of Writhing” value (mice [5]; 100 mg/kg transdermally) was 17.1 and the “In vitro penetration rate (apparent flux), prodrug compounds” value (human skin tissue [6]) was 1000 μg/cm^2/h. The “body temperature, t = 0 min” value (rats; 100 mg/kg transdermally) was 37.27 ± 0.06, the “body temperature, t = 90 min” value (rats; 100 mg/kg transdermally) was 36.71 ± 0.05 and the “body temperature, t = 180 min” value (rats; 100 mg/kg transdermally) was 36.65 ± 0.08. For the same compound, the “body temperature, t = 270 min” value (rats; 100 mg/kg transdermally) was 36.59 ± 0.07.
With O=C(O)CC(O)c1ccc(-c2ccc(Cl)cc2)o1 (stereo not shown) [Orpanoxin, orpanoxin] the “Peak plasma concentration after parent compound” value ([1]; mouse, in vivo) was 10 mg/L, the “t, time … after parent compound” value [2] was 2 to 4 h and the “In vitro penetration rate (apparent flux), parent compounds” value (human skin tissue [3]) was 30 μg/cm^2/h.
With “salicylsalicylic acid [Salsalate, reference compound]” the “Peak plasma concentration after parent compound” value ([1]; mouse, in vivo) was 0.1 mg/L, the “t, time … after parent compound” value [2] was 1 to 2 h and the “LD50 of parent drug” value (rat; rats) was 1500 mg/kg. For the same compound, the “In vitro penetration rate (apparent flux), parent compounds” value (human skin tissue [3]) was under 1 μg/cm^2/h.
For O=C(O)c1ccccc1O [salicylic acid], the “t, time … after parent compound” value ([1]; parent compound administered (time when taken orally)) was 1 to 2 h, the “Peak plasma concentration after parent compound” value ([1]; parent compound administered, hairless mice) was 0.1 mg/L and the “In vitro penetration rate (apparent flux), parent compounds” value (human skin tissue [3]; human, 20 %) was under 1 μg/cm^2/h. For the same compound, the concentration at 3 h ([7]; read-out: amount in Bone) was 35000 ± 6000 ng/g, the concentration at 3 h ([7]; read-out: amount in Brain) was 30000 ± 6000 ng/g and the concentration at 3 h ([7]; read-out: amount in Liver) was 45000 ± 8000 ng/g. It also gave a concentration at 3 h ([7]; read-out: amount in Plasma) of 65 ± 10 µg/mL and a solubility [8] of 100 µg/mL (≈ 724 µM).
In the case of CC(=O)O.CCN(CC)CCOC(=O)c1cc(-c2ccc(F)cc2F)ccc1O [diethylaminoethyl 5-(2,4-difluorophenyl) salicylate.AcOH], the “Peak plasma concentration of parent compound after prodrug compound” value ([1]; mouse, in vivo) is reported as 50 mg/L, the “t, time to peak plasma level of parent compound after prodrug compound” value ([1]; mouse, in vivo) is reported as 30 min and the “LD50 of HPP” value (rat; rats) is reported as 1000 mg/kg. For the same compound, the “analgesic activity, prolongation time of pain threshold of mice tails” value (mice [9]) was “stronger analgesic activity”, the “In vitro penetration rate (apparent flux), prodrug compounds” value (human skin tissue [3]) was 100 μg/cm^2/h and the “% (rate of writhing inhibition)” value (mice [5]; 50 mg/kg transdermally) was 62%. For the same compound, the “No. of Writhing” value (mice [5]; 50 mg/kg transdermally) was 13.2, the “% (rate of writhing inhibition)” value (mice [5]; 100 mg/kg transdermally) was 71% and the “No. of Writhing” value (mice [5]; 100 mg/kg transdermally) was 10.2. The “body temperature, t = 0 min” value (rats; 100 mg/kg transdermally) was 37.22 ± 0.07, the “body temperature, t = 90 min” value (rats; 100 mg/kg transdermally) was 36.42 ± 0.06 and the “body temperature, t = 180 min” value (rats; 100 mg/kg transdermally) was 36.40 ± 0.05. The “body temperature, t = 270 min” value (rats; 100 mg/kg transdermally) was 36.47 ± 0.08, the “body temperature, t = 0 min” value (rats; 150 mg/kg transdermally) was 37.26 ± 0.08 and the “body temperature, t = 90 min” value (rats; 150 mg/kg transdermally) was 36.20 ± 0.05. For the same compound, the “body temperature, t = 180 min” value (rats; 150 mg/kg transdermally) was 36.30 ± 0.07 and the “body temperature, t = 270 min” value (rats; 150 mg/kg transdermally) was 36.31 ± 0.08.
In the case of CN1C(C(=O)Nc2nccs2)=C(O)c2ccccc2S1(=O)=O [Sudoxiam, sudoxiam], the “Peak plasma concentration after parent compound” value ([1]; mouse, in vivo) is reported as 0.1 mg/L, the “t, time … after parent compound” value [2] is reported as 2 to 4 h and the “In vitro penetration rate (apparent flux), parent compounds” value (human skin tissue [3]) is reported as under 1 μg/cm^2/h.
